In ChEMBL document CHEMBL5120777, “Incorporating Selenium into Heterocycles and Natural Products─From Chemical Properties to Pharmacological Activities” (J Med Chem, 2022) one finds IC50 data, which are given here for one molecule.

Molecules are shown by their SMILES.

What all share (assay type): functional, cell-based
One assay deals with SK-OV-3. In words: Antiproliferative activity against human SK-OV-3 cells assessed as inhibition of cell growth incubated for 72 hrs by MTT assay. Conditions: SK-OV-3, 72 h. A general note: Tetrazolium dyes change colour on reduction, which living cells bring about.
For the next assay, the system named is PC-3. Briefly: Antiproliferative activity against human PC-3 cells assessed as inhibition of cell growth incubated for 72 hrs by MTT assay. Conditions: PC-3, 72 h.
In another assay the test system is T47D. Briefly: Antiproliferative activity against human T47D cells assessed as inhibition of cell growth incubated for 72 hrs by MTT assay.

The term IC50 denotes the midpoint of a concentration-inhibition curve. Consider `CC(=O)O[C@H]1CC[C@@]2(C)C(=CC[C@@H]3[C@@H]2CC[C@]2(C)C(c4cccnc4)=CC[C@@H]32)C1` [ABIRATERONE ACETATE], for which the IC50 in the assay on SK-OV-3 turned out to be 51.5 µM; in the assay on PC-3 it was 37.6 µM; in the assay with T47D, 34.7 µM.
